Holding throughout (type): in vitro ADME
Series [1] addresses CYP3A4 (Homo sapiens, UniProt P08684). Put plainly: CYP inhibition, 3A4.
For series [2], the target named is CYP2D6 (Homo sapiens, UniProt P10635). Put plainly: CYP inhibition, 2D6.
The nature of series [3]: Predicted hepatic clearance, human hepatic microsomes. The protocol:
Intrinsic clearance: Human or rat hepatic microsomes (0.5 mg/mL) and 1 µM test compound were incubated in 100 mM potassium phosphate pH 7.4 buffer with 3 mM MgCl2 at 37 °C with constant shaking. After a 5 min preincubation, the reaction was initiated by the addition of NADPH (1 mM). At selected time intervals (0, 3, 7, 15, 25, and 45 min), aliquots were taken and subsequently placed into a 96-well plate containing cold acetonitrile with internal standard (50 ng/mL carbamazepine). Plates were then centrifuged at 3000 rcf (4 °C) for 10 min, and the supernatant was transferred to a separate 96-well plate and diluted 1:1 with water for LC/MS/MS analysis. The in vitro half-life ( 1/2, min, Eq. 1), intrinsic clearance (CLint, mL/min/kg, Eq. 2), and subsequent predicted hepatic clearance (CLhep, mL/min/kg, Eq. 3) was determined employing the […]
where k represents the slope from linear regression analysis of the natural log percent remaining of a test compound as a function of incubation time […]
(2) CLint = in vitroT1/2 x mg microsomes x gram liver x kg body wt ascale-up factors: of 20 (human) or 45 (rat) […]
where Qh (hepatic blood flow, mL/min/kg) is 21 (human) or 70 (rat).
LC/MS/MS Bioanalysis of Samples from Plasma Protein Binding and Intrinsic Clearance […]
Samples were analyzed on a Thermo Electron TSQ Quantum Ultra triple quad mass spectrometer (San Jose, CA) via electrospray ionization (ESI) with two Themo Electron Accella pumps (San Jose, CA), and a Leap Technologies CTC PAL autosampler (Carrboro, NC). Analytes were separated by gradient elution on a dual column system with two Thermo Hypersil Gold (2.1 x 30 mm, 1.9 µm) columns (San Jose, CA) thermostated at 40 °C. HPLC mobile phase A was 0.1% formic acid in water and mobile phase B was 0.1% formic acid in acetonitrile. The gradient started […]
for 0.2 min; returned to 10% B in 0.1 min. The total run time was 1.3 min and the HPLC flow rate was 0.8 mL/min. […]

In series [4] the target is T1, CYP1A2 (Homo sapiens, UniProt P05177).
T1 sequence (P05177 1-516): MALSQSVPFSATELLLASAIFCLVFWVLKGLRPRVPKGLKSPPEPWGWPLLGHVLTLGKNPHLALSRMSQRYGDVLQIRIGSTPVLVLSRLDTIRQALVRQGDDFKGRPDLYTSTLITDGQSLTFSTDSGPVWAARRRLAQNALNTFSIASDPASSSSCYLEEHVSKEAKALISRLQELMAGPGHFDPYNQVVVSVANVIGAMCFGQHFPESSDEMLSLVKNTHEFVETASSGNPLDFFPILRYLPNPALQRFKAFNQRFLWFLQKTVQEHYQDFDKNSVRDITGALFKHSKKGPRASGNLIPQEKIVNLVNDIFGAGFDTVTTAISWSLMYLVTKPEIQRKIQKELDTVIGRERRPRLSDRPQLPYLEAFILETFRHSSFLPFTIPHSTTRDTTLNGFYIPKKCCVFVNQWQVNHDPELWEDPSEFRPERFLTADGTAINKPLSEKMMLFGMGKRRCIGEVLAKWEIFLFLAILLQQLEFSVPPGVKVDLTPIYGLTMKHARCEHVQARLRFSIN
The series is described as follows: CYP inhibition, 1A2.

A short description of series [5]: Plasma protein binding, rat. As to conditions: pH 7.4, read-out: fu,plasma rat. The protocol: Plasma protein binding and Brain homogenate binding: Determination of fraction unbound (f u) in plasma was conducted in vitro via equilibrium dialysis using HTDialysis (HTD) membrane plates. The top half of the plate was filled with 100 uL of Dubelco’s Phosphate Buffered Saline, pH 7.4 (DPBS). Compounds were diluted into plasma from each species (5 µM final concentration), which was aliquoted in triplicate to the ‘bottom half’ of the prepared HTD plate wells. The HTD plate was sealed and incubated for 6 hours at 37 °C. Following incubation, each well (both top and bottom halves) were transferred (20 µL) to the corresponding wells of a 96-shallow-well (V-bottom) plate. The daughter plates were then matrix-matched (DPBS side wells received equal volume of plasma, and plasma side wells received equal volume of DPBS), and extraction solution (120 µL; acetonitrile containing 50 nM carbamazepine as IS) was added to all wells of both daughter plates to precipitate protein and extract test article. The plates were then sealed and centrifuged (3500 rcf) for 10 minutes at ambient temperature. Supernatant (60 µL) from each well of the daughter plates was then transferred to the corresponding wells of new daughter plates (96-shallow-well, V bottom) containing water (Milli-Q, 60 µL/well), and the plates were sealed in preparation for LC-MS/MS analysis (see LC-MS/MS analysis method below).
The unbound fraction (f u) was calculated following the equation below, and mean values for each species were calculated from 3 replicates. […]
Fraction unbound for both plasma and brain samples was determined using Equation 4.
Equation 4 Determination of fraction unbound in plasma.

The structures appear in SMILES notation.

Chain of CYP2D6 (P10635 whole entry): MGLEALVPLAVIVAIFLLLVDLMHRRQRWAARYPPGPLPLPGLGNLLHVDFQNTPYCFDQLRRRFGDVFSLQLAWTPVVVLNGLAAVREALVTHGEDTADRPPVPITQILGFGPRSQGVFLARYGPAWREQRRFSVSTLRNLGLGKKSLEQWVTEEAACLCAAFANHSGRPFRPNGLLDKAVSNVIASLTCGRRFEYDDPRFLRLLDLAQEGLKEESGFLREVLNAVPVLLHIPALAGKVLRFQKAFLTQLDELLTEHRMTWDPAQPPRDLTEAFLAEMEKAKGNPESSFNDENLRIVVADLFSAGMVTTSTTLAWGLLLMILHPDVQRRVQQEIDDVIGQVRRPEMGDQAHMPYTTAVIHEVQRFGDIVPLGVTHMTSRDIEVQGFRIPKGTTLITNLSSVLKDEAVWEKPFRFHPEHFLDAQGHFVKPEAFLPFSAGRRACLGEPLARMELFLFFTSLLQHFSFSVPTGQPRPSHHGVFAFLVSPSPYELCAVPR
Chain of CYP3A4 (P08684 whole entry): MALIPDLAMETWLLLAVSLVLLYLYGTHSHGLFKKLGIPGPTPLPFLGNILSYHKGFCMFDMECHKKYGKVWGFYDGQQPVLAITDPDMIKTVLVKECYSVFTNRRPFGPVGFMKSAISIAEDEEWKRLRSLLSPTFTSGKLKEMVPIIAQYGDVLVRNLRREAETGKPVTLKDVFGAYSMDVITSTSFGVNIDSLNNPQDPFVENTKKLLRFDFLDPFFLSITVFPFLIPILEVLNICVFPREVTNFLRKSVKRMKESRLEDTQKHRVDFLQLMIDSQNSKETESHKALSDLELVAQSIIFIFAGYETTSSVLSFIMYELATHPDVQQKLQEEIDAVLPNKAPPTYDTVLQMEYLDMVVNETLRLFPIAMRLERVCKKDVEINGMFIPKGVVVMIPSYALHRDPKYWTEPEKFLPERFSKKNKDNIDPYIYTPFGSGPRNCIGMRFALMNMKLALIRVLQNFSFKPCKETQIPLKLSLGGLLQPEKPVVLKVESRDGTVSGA

In general, IC50 refers to the concentration that gives 50% inhibition. A lower IC50 goes with greater potency. For the compound `Cn1ccc(-c2ccc(Cc3cc(C(=O)NC4CCOCC4)nc4ccn(C)c34)cc2)n1` [compound 11], the IC50 in series [1], in series [2] and in series [4] was more than 30 µM in each case. Further, the “Predicted CLhep, human” value in series [3] is 12 mL/min/kg. The fraction unbound at 6 h, 5 µM in series [5] came to 0.04.
For the compound `Cn1ccc(-c2ccc(Cc3cc(C(=O)NC4CCOCC4)nc4ccsc34)cc2)n1` [compound 12], the IC50 in series [1], in series [2] and in series [4] was more than 30 µM in each case. In series [3], the “Predicted CLhep, human” value is listed as 7.5 mL/min/kg. In series [5], the fraction unbound at 6 h, 5 µM worked out at 0.015.
Take `Cn1ccc2nc(C(=O)NC3CCOCC3)cc(Cc3ccc(-c4cc[nH]n4)cc3)c21` [compound 24]: the results for the IC50 in series [1], in series [2] and in series [4] were 5.7 µM, more than 30 µM and more than 30 µM, respectively. In series [3], the “Predicted CLhep, human” value is 12.8 mL/min/kg. The fraction unbound at 6 h, 5 µM in series [5] turned out to be 0.134.

The values above are taken from PMC11413853, “Discovery of VU6007496: Challenges in the Development of an M1 Positive Allosteric Modulator Backup Candidate” (ACS Chemical Neuroscience, 2024).
